{
  "source": "patent US20100035993A1",
  "about": "“METHODS AND COMPOSITIONS COMPRISING 2-[(3-CHLOROPHENYL) AMINO] PHENYLACETIC ACID FOR HYPERPERMEABILITY AND NEOVASCULARIZATION DISORDERS OF THE RETINA” (priority 2008, published 2010)",
  "key": {"VEGF": {"system": "VEGF", "assay": "VEGF in vitreous of streptozotocin-diabetic rats, immunoassay", "type": "in vivo, rat", "conditions": "vitreous of male streptozotocin-diabetic rats treated for 26 weeks with 15 mg/kg/day by gavage; Normal Control 75, Diabetic Control 167", "method": "(§1) Vitreous was harvested from male rats that were rendered diabetic by intravenous injection of streptozotocin and that were treated for 26 weeks with 23CPPA (15 mg/kg/day) administered by gavage, and from age and gender matched diabetic and nondiabetic control rats. PEDF and VEGF were measured by immunoassay. The relative ratio of VEGF to PEDF in diabetic control rats and diabetic rats treated with 23CPPA was compared to that in nondiabetic control rats which was assigned an arbitrary value of 1.0."}, "PEDF": {"system": "PEDF", "assay": "PEDF in vitreous of streptozotocin-diabetic rats, immunoassay", "type": "in vivo, rat", "conditions": "vitreous of male streptozotocin-diabetic rats treated for 26 weeks with 15 mg/kg/day by gavage; Normal Control 15.3, Diabetic Control 4.6", "method": "as §1"}},
  "data": [
    {"smiles": "O=C(O)Cc1ccccc1Nc1cccc(Cl)c1", "note": "[23CPPA, 2-[(3-chlorophenyl)amino]phenylacetic acid]", "values": [
      {"measurement": "VEGF", "setting": "VEGF", "result": 105, "unit": "pg/mL"},
      {"measurement": "PEDF", "setting": "PEDF", "result": 8.7, "unit": "ng/mL"}
    ]}
  ]
}
